Test results taken from ChEMBL document CHEMBL1137017, “In vitro antiviral activity and cross-resistance profile of PL-100, a novel protease inhibitor of human immunodeficiency virus type 1” (Antimicrob Agents Chemother, 2007).

How the values were obtained:
[1] = test system: Human immunodeficiency virus 1; assay: Resistance index, ratio of EC50 for HIV1 with protease 46L/48V/82A/90M mutation to EC50 for wild type HIV1 NL4-3 in HEK293 cells after 48 hrs by replication-deffective luciferase reporter gene-based phenotypic assay; format: functional
[2] = test system: Human immunodeficiency virus 1; assay: Resistance index, ratio of EC50 for HIV1 with protease 54V/84V mutation to EC50 for wild type HIV1 NL4-3 in HEK293 cells after 48 hrs by replication-deffective luciferase reporter gene-based phenotypic assay; format: functional
[3] = test system: Human immunodeficiency virus 1; assay: Resistance index, ratio of EC50 for HIV1 with protease 33F/46I/53L/82A/84V mutation to EC50 for wild type HIV1 NL4-3 in HEK293 cells after 48 hrs by replication-deffective luciferase reporter gene-based phenotypic assay; format: functional
[4] = test system: Human immunodeficiency virus 1; assay: Resistance index, ratio of EC50 for HIV1 with protease 48V/54V/82A/90M mutation to EC50 for wild type HIV1 NL4-3 in HEK293 cells after 48 hrs by replication-deffective luciferase reporter gene-based phenotypic assay; format: functional
[5] = test system: Human immunodeficiency virus 1; assay: Resistance index, ratio of EC50 for HIV1 with protease 33F/54V/82T/84V/90M mutation to EC50 for wild type HIV1 NL4-3 in HEK293 cells after 48 hrs by replication-deffective luciferase reporter gene-based phenotypic assay; format: functional
[6] = test system: Human immunodeficiency virus 1; assay: Resistance index, ratio of EC50 for HIV1 with protease 46I/50L/54V/82A mutation to EC50 for wild type HIV1 NL4-3 in HEK293 cells after 48 hrs by replication-deffective luciferase reporter gene-based phenotypic assay; format: functional
[7] = test system: Human immunodeficiency virus 1; assay: Resistance index, ratio of EC50 for HIV1 with protease 33F/54L/82A/84V mutation to EC50 for wild type HIV1 NL4-3 in HEK293 cells after 48 hrs by replication-deffective luciferase reporter gene-based phenotypic assay; format: functional
[8] = test system: Human immunodeficiency virus 1; assay: Resistance index, ratio of EC50 for HIV1 with protease 46L/48V/82A/84V mutation to EC50 for wild type HIV1 NL4-3 in HEK293 cells after 48 hrs by replication-deffective luciferase reporter gene-based phenotypic assay; format: functional
[9] = test system: Human immunodeficiency virus 1; assay: Resistance index, ratio of EC50 for HIV1 with protease 46L/48V/82A/84V/90M mutation to EC50 for wild type HIV1 NL4-3 in HEK293 cells after 48 hrs by replication-deffective luciferase reporter gene-based phenotypic assay; format: functional
[10] = test system: Human immunodeficiency virus 1; assay: Resistance index, ratio of EC50 for HIV1 with protease 46L/54V/73C/84V/90M mutation to EC50 for wild type HIV1 NL4-3 in HEK293 cells after 48 hrs by replication-deffective luciferase reporter gene-based phenotypic assay; format: functional
[11] = test system: Human immunodeficiency virus 1; assay: Resistance index, ratio of EC50 for HIV1 with protease 33I/46I/84V/90M mutation to EC50 for wild type HIV1 NL4-3 in HEK293 cells after 48 hrs by replication-deffective luciferase reporter gene-based phenotypic assay; format: functional
[12] = test system: Human immunodeficiency virus 1; assay: Resistance index, ratio of EC50 for HIV1 with protease 46L/50L/54V/82A mutation to EC50 for wild type HIV1 NL4-3 in HEK293 cells after 48 hrs by replication-deffective luciferase reporter gene-based phenotypic assay; format: functional
[13] = test system: Human immunodeficiency virus 1; assay: Resistance index, ratio of EC50 for HIV1 with protease 46I/50V/90M mutation to EC50 for wild type HIV1 NL4-3 in HEK293 cells after 48 hrs by replication-deffective luciferase reporter gene-based phenotypic assay; format: functional
[14] = test system: Human immunodeficiency virus 1; assay: Resistance index, ratio of EC50 for HIV1 with protease 46I/50V/54V mutation to EC50 for wild type HIV1 NL4-3 in HEK293 cells after 48 hrs by replication-deffective luciferase reporter gene-based phenotypic assay; format: functional
[15] = test system: Human immunodeficiency virus 1; assay: Resistance index, ratio of EC50 for HIV1 with protease 46I/82T/84V/90M mutation to EC50 for wild type HIV1 NL4-3 in HEK293 cells after 48 hrs by replication-deffective luciferase reporter gene-based phenotypic assay; format: functional
[16] = test system: Human immunodeficiency virus 1; assay: Resistance index, ratio of EC50 for HIV1 with protease 46L mutation to EC50 for wild type HIV1 NL4-3 in HEK293 cells after 48 hrs by replication-deffective luciferase reporter gene-based phenotypic assay; format: functional
[17] = test system: Human immunodeficiency virus 1; assay: Resistance index, ratio of EC50 for HIV1 with protease 33F/46L/53L/54V/82A mutation to EC50 for wild type HIV1 NL4-3 in HEK293 cells after 48 hrs by replication-deffective luciferase reporter gene-based phenotypic assay; format: functional
[18] = test system: Human immunodeficiency virus 1; assay: Resistance index, ratio of EC50 for HIV1 with protease 46I/88S mutation to EC50 for wild type HIV1 NL4-3 in HEK293 cells after 48 hrs by replication-deffective luciferase reporter gene-based phenotypic assay; format: functional
[19] = test system: Human immunodeficiency virus 1; assay: Resistance index, ratio of EC50 for HIV1 with protease 33F/46I/84V/88D/90M mutation to EC50 for wild type HIV1 NL4-3 in HEK293 cells after 48 hrs by replication-deffective luciferase reporter gene-based phenotypic assay; format: functional
[20] = test system: Human immunodeficiency virus 1; assay: Resistance index, ratio of EC50 for non-B type HIV1 with protease 32I/47A mutation to EC50 for wild type HIV1 NL4-3 in HEK293 cells after 48 hrs by replication-deffective luciferase reporter gene-based phenotypic assay; format: functional
[21] = test system: Human immunodeficiency virus 1; assay: Resistance index, ratio of EC50 for HIV1 with protease 32I/46L/47V/84V mutation to EC50 for wild type HIV1 NL4-3 in HEK293 cells after 48 hrs by replication-deffective luciferase reporter gene-based phenotypic assay; format: functional
[22] = test system: Human immunodeficiency virus 1; assay: Resistance index, ratio of EC50 for HIV1 with protease 33F/54L/82A/90M mutation to EC50 for wild type HIV1 NL4-3 in HEK293 cells after 48 hrs by replication-deffective luciferase reporter gene-based phenotypic assay; format: functional
[23] = Cytotoxicity against human MT4 cells after 6 days by MTT assay; format: cell-based
[24] = test system: Human immunodeficiency virus 1; assay: Resistance index, ratio of EC50 for HIV1 with protease 37T/41K/70E mutation to EC50 for wild type HIV1 NL4-3 in HEK293 cells after 48 hrs by replication-deffective luciferase reporter gene-based phenotypic assay; format: functional
[25] = test system: Human immunodeficiency virus 1; assay: Resistance index, ratio of EC50 for HIV1 with protease 32I/46I/47V/50L mutation to EC50 for wild type HIV1 NL4-3 in HEK293 cells after 48 hrs by replication-deffective luciferase reporter gene-based phenotypic assay; format: functional
[26] = test system: Human immunodeficiency virus 1; assay: Resistance index, ratio of EC50 for HIV1 with protease 48V/82A/84V/90M mutation to EC50 for wild type HIV1 NL4-3 in HEK293 cells after 48 hrs by replication-deffective luciferase reporter gene-based phenotypic assay; format: functional
[27] = test system: Human immunodeficiency virus 1; assay: Resistance index, ratio of EC50 for HIV1 with protease 46I/82A/84V/90M mutation to EC50 for wild type HIV1 NL4-3 in HEK293 cells after 48 hrs by replication-deffective luciferase reporter gene-based phenotypic assay; format: functional
[28] = test system: Human immunodeficiency virus 1; assay: Resistance index, ratio of EC50 for HIV1 with protease 33F/54L/88S/90M mutation to EC50 for wild type HIV1 NL4-3 in HEK293 cells after 48 hrs by replication-deffective luciferase reporter gene-based phenotypic assay; format: functional
Protease = Protease (Human immunodeficiency virus 1, UniProt Q9YQ12); assay: Inhibition of HIV1 protease
Sequence of Protease (Q9YQ12 whole entry): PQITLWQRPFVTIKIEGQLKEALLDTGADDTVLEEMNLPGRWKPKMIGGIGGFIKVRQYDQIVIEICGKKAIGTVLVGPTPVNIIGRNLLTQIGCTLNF

| Structure (SMILES) | Ratio EC50 [1] | Ratio EC50 [2] | Ratio EC50 [3] | Ratio EC50 [4] | Ratio EC50 [5] | Ratio EC50 [6] | Ratio EC50 [7] | Ratio EC50 [8] | Ratio EC50 [9] | Ratio EC50 [10] | Ratio EC50 [11] | Ratio EC50 [12] | Ratio EC50 [13] | Ratio EC50 [14] | Ratio EC50 [15] | Ratio EC50 [16] | Ratio EC50 [17] | Ratio EC50 [18] | Ratio EC50 [19] | Ratio EC50 [20] | other results |
| --- | --- | --- | --- | --- | --- | --- | --- | --- | --- | --- | --- | --- | --- | --- | --- | --- | --- | --- | --- | --- | --- |
| COC(=O)N[C@H](C(=O)N[C@@H](Cc1ccccc1)[C@@H](O)CN(Cc1ccc(-c2ccccn2)cc1)NC(=O)[C@@H](NC(=O)OC)C(C)(C)C)C(C)(C)C [ATAZANAVIR] | 35.4 | 8.3 | 18.3 | 28 | 14.1 | 67.5 | 44.5 | 21.5 | 91.6 | 55.2 | 7.5 | 68.9 | 1.2 | 2.4 | 32 | 0.9 | 22.7 | 3.1 | 14.7 | 1 | Ratio EC50 [21]: 25; Ratio EC50 [22]: 7.5; CC50 at 144 h [23]: 71 µM; Ratio EC50 [24]: 1.5; Ratio EC50 [25]: 81.2; Ratio EC50 [26]: 57.7; Ratio EC50 [27]: 3.8; Ratio EC50 [28]: 18.9; Ki (Protease): 0.039 nM |
| COC(=O)N[C@H](C(=O)NCCCC[C@@H](CO)N(CC(C)C)S(=O)(=O)c1ccc(N)cc1)C(c1ccccc1)c1ccccc1 [PPL-100] | 7.5 | 0.8 | 17.8 | 1.1 | 3.4 | 4 | 31.2 | 1.2 | 13.4 | 10.8 | 3.4 | 3.2 | 1.4 | 0.5 | 4.8 | 1.1 | 5.5 | 0.4 | 5.6 | 1.4 | Ratio EC50 [21]: 0.6; Ratio EC50 [22]: 30.3; CC50 at 144 h [23]: 37 µM; Ratio EC50 [24]: 1.9; Ratio EC50 [25]: 1.1; Ratio EC50 [26]: 13.5; Ratio EC50 [27]: 10.1; Ratio EC50 [28]: 1.7; Ki (Protease): 0.036 nM |
| Cc1c(O)cccc1C(=O)N[C@@H](CSc1ccccc1)[C@H](O)CN1C[C@H]2CCCC[C@H]2C[C@H]1C(=O)NC(C)(C)C | 30.8 | 15 | 11.1 | 25.4 | 14.9 | 14 | 17.2 | 5.9 | 43.6 | 82.6 | 28.5 | 11.8 | 19.4 | 12.7 | 27.1 | 1.7 | 28.3 | 4.6 | 10 | 3.1 | Ratio EC50 [21]: 7.8; Ratio EC50 [22]: 10.4; CC50 at 144 h [23]: 8 µM; Ratio EC50 [24]: 1.9; Ratio EC50 [25]: 3.5; Ratio EC50 [26]: 27.3; Ratio EC50 [27]: 11.2; Ratio EC50 [28]: 14.5; Ki (Protease): 0.306 nM |
